Measurements as given in ChEMBL document CHEMBL1201862, “PubChem BioAssay data set” (2004).
Activity calls are given as the source filed them.

What was measured:
[1] = biological target: T1, Histone-lysine N-methyltransferase NSD2 (Homo sapiens, UniProt O96028); assay type: biochemical
T1 sequence (O96028 whole entry): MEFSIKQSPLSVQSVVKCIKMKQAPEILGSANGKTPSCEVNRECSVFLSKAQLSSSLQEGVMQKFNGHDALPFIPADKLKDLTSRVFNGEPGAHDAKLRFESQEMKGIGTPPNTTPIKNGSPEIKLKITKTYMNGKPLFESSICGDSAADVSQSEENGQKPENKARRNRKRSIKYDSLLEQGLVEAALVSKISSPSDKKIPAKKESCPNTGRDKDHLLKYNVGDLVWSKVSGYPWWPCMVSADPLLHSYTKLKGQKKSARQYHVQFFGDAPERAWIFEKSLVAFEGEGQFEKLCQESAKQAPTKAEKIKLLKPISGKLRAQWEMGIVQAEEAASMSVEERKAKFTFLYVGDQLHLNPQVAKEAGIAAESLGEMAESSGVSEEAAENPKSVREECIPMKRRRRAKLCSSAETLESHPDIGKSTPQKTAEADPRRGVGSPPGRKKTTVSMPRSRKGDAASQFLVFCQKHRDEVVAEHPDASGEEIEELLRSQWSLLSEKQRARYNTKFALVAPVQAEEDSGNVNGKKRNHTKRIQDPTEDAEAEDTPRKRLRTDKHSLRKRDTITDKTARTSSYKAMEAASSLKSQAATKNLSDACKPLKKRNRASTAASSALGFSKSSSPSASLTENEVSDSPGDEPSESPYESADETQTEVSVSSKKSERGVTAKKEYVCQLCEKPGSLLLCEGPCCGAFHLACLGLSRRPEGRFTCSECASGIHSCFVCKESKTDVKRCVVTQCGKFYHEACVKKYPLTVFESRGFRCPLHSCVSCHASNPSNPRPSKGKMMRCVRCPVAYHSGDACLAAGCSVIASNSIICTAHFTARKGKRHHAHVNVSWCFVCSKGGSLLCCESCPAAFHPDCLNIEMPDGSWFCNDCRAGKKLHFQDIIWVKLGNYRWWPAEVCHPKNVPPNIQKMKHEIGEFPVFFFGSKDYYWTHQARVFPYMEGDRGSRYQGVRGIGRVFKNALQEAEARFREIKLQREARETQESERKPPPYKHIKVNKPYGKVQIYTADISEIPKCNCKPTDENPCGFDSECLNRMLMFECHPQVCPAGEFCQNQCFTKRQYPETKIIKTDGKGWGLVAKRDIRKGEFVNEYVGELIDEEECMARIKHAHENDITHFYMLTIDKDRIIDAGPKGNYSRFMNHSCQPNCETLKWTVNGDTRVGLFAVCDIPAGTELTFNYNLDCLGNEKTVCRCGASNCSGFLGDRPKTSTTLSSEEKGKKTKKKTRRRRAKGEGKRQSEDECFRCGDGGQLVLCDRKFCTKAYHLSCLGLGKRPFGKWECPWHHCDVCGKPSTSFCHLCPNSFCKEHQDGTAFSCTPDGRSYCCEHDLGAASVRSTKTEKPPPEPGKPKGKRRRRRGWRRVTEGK

Streptokinase A = biological target: T2, Streptokinase A (Streptococcus pyogenes serotype M1, UniProt P10520); assay: viability-normalized secreted streptokinase activity reduction – plasminogen activation absorbance, OD405, dose response (AID 1914); assay type: functional, Streptococcus pyogenes M1 GAS;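 also: secreted streptokinase activity via plasminogen activation per viability signal from cell pellet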
T2 sequence (P10520 whole entry): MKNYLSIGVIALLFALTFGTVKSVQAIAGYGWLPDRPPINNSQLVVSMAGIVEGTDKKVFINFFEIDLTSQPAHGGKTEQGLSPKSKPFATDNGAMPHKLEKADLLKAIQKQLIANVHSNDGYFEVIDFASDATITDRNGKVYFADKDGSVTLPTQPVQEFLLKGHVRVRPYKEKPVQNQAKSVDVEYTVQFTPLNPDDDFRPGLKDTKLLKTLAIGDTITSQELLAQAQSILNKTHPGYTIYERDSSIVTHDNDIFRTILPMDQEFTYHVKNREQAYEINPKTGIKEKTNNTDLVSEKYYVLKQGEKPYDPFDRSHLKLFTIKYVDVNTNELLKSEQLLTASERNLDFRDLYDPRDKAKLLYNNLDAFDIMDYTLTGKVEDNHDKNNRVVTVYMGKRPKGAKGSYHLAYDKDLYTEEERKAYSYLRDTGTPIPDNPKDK

[2] = system: Streptococcus sp. 'group A'; assay: Streptococcus pyogenes SK(-)GAS viability under kanamycin – luminescence, BacTiterGlo, confirmation, counter-screen for streptokinase expression inhibitor project, dose response (AID 1900); assay type: functional, organism-based
Streptococcus = assay: GAS UMAA2166 growth inhibition – luminescence, BacTiterGlo, counter-screen for streptokinase expression inhibitor project, dose response (AID 1915); assay type: functional, organism-based;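 also: potency for reduction of bacterial viability or growth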
[3] = viability of uninfected HEp-2 cells – cell-based, HTS, cytotoxicity control for RSV inhibitor project, dose response (AID 2410); assay type: functional; conditions: human respiratory syncytial virus
Major prion protein = Major prion protein (Homo sapiens, UniProt P04156); assay type: functional, cell-based
[4] = biological target: T3, Heat shock factor protein 1 (Mus musculus, UniProt P38532); assay: decrease of HSF1-responsive luciferase luminescence – cell-based, NIH3T3, dose retest, confirmation (AID 2382); assay type: functional;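 also: NIH3T3 fibroblasts with HSF1-driven luciferase reporter stressed by proteasome inhibitor MG132; luminescence from HSF1-driven luciferase expression after 8 hours of MG132 stress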
T3 sequence (P38532 whole entry): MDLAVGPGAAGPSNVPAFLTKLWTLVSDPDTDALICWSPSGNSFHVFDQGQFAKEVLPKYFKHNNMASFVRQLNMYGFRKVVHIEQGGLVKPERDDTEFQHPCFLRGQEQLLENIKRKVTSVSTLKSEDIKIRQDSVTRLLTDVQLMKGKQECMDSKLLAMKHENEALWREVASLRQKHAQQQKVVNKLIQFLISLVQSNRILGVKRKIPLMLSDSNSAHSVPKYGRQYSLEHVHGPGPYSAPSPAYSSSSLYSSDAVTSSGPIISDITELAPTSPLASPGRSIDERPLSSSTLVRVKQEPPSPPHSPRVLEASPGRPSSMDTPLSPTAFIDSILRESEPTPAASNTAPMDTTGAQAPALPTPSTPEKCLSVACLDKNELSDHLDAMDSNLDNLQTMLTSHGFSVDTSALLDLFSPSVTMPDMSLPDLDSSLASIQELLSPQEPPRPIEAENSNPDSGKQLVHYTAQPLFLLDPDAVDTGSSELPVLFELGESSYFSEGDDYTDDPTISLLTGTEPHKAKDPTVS

[5] = HIV-1 Vif–A3G interaction blockers – biochemical, TR-FRET, GST-Vif 1-94, biotin-A3G peptide, dose response retest, primary screen (AID 1117319); assay type: functional;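 also: TR-FRET signal of purified GST-Vif binding a biotinylated A3G peptide; inhibitors lower the FRET signal by blocking Vif and A3G binding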
[6] = rise of 2N DNA cells, HeLa – IC50, dose response (AID 1117349); assay type: functional, cell-based
[7] = rise of 4N DNA cells, HeLa – IC50, dose response (AID 1117351); assay type: functional, cell-based
Estrogen receptor = biological target: T4, Estrogen receptor (Homo sapiens, UniProt P03372);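 also: potency for inhibiting coactivator peptide recruitment to the receptor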
T4 sequence (P03372 whole entry): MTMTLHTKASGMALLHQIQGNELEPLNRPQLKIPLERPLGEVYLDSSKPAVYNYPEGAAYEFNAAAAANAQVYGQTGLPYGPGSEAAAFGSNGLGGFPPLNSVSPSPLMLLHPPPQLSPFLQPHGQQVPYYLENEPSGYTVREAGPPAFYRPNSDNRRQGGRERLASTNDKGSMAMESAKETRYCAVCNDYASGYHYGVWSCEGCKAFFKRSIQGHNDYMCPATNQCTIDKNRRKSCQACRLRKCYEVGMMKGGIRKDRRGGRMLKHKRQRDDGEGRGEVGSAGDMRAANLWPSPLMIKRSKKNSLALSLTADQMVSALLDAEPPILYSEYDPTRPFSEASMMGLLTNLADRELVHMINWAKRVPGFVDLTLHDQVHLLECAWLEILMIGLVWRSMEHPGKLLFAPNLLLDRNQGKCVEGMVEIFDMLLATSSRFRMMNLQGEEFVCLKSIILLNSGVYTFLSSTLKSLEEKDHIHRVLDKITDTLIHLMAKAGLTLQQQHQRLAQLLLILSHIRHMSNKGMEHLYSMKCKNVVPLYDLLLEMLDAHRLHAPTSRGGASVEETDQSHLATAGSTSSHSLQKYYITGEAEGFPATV

[8] = NIH3T3 cell viability loss – ATP luminescence, mouse fibroblasts, counter-screen, dose response (AID 2010); assay type: functional, cell-based;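 also: cells exposed to compound for about 90 hours before reading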
[9] = Trypanosoma cruzi growth suppression in host cells – NIH3T3 host cells, beta-gal luminescence, confirmation (AID 2044); assay type: functional, cell-based;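 also: intracellular parasites grown in NIH/3T3 mouse fibroblasts as host cells; luminescent beta-galactosidase reporter signal from transgenic T. cruzi replicating inside host cells; inhibitors lower the luminescence signal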
[10] = biological target: Glyceraldehyde-3-phosphate dehydrogenase (Homo sapiens, UniProt P04406)
Cytochrome P450 1A2 = biological target: T5, Cytochrome P450 1A2 (Homo sapiens, UniProt P05177);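 also: PubChem cytochrome P450 panel assay, CYP1A2 panel member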
T5 sequence (P05177 whole entry): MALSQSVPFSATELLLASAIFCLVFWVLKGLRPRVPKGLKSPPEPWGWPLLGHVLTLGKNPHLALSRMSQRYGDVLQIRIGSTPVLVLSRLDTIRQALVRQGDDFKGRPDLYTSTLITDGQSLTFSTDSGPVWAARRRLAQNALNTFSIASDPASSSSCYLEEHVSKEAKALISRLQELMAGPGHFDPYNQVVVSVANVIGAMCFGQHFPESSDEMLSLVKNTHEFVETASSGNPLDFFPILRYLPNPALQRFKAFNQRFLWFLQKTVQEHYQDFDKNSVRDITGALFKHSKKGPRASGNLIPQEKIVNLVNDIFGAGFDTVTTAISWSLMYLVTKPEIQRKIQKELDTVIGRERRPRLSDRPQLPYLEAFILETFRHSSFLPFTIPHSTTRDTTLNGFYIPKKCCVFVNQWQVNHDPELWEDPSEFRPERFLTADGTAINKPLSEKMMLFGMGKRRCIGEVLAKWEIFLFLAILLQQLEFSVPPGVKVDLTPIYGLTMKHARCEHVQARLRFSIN

[11] = A cytotoxicity screen of small molecule inhibitors of the PhoP region in Salmonella typhi identified in the primary screen. [Related pubchem assays: 1850, 1864, 1985 ]; assay type: functional
[12] = biological target: T6, Endoribonuclease toxin MazF (Escherichia coli K-12, UniProt P0AE70); assay: activation of MazEF endoribonuclease cleavage – biochemical, fluorescence, single-stranded RNA substrate, uHTS hits, dose response (AID 588481); assay type: functional
T6 sequence (P0AE70 whole entry): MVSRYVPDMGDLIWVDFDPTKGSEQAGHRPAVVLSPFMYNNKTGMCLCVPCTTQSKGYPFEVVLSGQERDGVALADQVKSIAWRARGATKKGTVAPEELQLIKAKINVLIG

[13] = viability loss in THP-1 monocytes – THP-1 cells, cytotoxicity control for Vif-APOBEC3G degradation inhibitor project, dose response (AID 1117359); assay type: functional; conditions: THP-1
[14] = biological target: T6, Endoribonuclease toxin MazF; assay: substrate-only fluorescence increase artefacts – biochemical, single-stranded RNase substrate, counter-screen for MazEF activator project, dose response (AID 588502); assay type: functional
[15] = Luminescence Cell-Based Dose Retest to Confirm Inhibitors of Cancer Stem Cells. [Related pubchem assays (depositor defined):AID2717, AID2721]; assay type: functional; conditions: Homo sapiens

COc1ccc(-c2csc(Nc3ccc(S(=O)(=O)Nc4cc(C)on4)cc3)n2)cc1C
AC50 [1]: 11.9 µM (active) | EC50 (Streptokinase A): > 150 µM (not active) | EC50 [2]: 5.7 µM (active) | EC50 (Streptococcus): 10.7 µM (active) | CC50 [3]: 8.8 µM (active)

CC(=O)NC(CSc1cc(C)nc2ccc(Br)cc12)C(=O)O (stereo unspecified)
IC50 (Major prion protein): 4.48 µM (active) | IC50 (cells): > 138 µM (inactive)

COC(=O)COc1ccc2c(c1C)O/C(=C\c1ccco1)C2=O
EC50 [4]: > 195 µM (not active) | IC50 [5]: > 100 µM (active)

Cc1cc(O)c2ccccc2c1O [VITAMIN K3H2]
IC50 [6]: > 10 µM (inactive) | IC50 [7]: > 10 µM (inactive)

Cc1c(Br)c(=O)oc2cc(OCC(=O)N3C[C@H]4C[C@@H](C3)c3cccc(=O)n3C4)ccc12
IC50 (Major prion protein): 8.34 µM (active) | IC50 (cells): > 138 µM (inactive)

NC(=O)C1(N2CCCCC2)CCN(c2nc(-c3ccc(Br)cc3)cs2)CC1
IC50 (Estrogen receptor): 37.8 µM (not active) | EC50 [8]: > 60 µM (inconclusive) | EC50 [9]: 1.78 µM (active)

C=CC(=O)Nc1cc2c(Nc3ccc(F)c(Cl)c3)ncnc2cc1OCCCN1CCOCC1 [CANERTINIB]
IC50 [6]: 8.87 µM (inactive) | IC50 [7]: > 10 µM (inactive)

Cc1c(Br)cc(C(=O)NCc2ccco2)c(C)c1C
IC50 (Estrogen receptor): > 50 µM (not active)

CC1(C)OC(=O)C(=Cc2ccc(I)o2)C(=O)O1
IC50 [10]: > 100 µM (not active)

O=C(Cc1cn2ccsc2n1)OCc1nc2ccccc2s1
IC50 (Estrogen receptor): 6.98 µM (active)

CCCc1nc(SCC(=O)NNC(=O)C2CCCCC2)c2ccccc2n1
AC50 (Cytochrome P450 1A2): 15.8 µM (inconclusive) | IC50 (Major prion protein): 0.896 µM (active) | IC50 (cells): > 138 µM (inactive)

O=C(Cn1ccc([N+](=O)[O-])n1)N1CCCc2ccccc21
IC50 [5]: > 100 µM (active)

NCCc1c(C(=O)O)[nH]c2ccc(S(N)(=O)=O)cc12
IC50 [10]: > 100 µM (not active)

Cc1cc(C)c([C@@H]2C[C@H]3CN(C4CCCC4)C(=O)[C@]34CCCN24)c(-n2cccn2)c1
EC50 [11]: > 50 µM (active)

Cc1oc(C)c2c(=O)ccc3c(c12)OC(N)=C(C#N)C3c1ccccc1 (stereo unspecified)
EC50 [12]: > 99 µM (inactive) | IC50 [5]: > 52.5 µM (active) | CC50 [13]: > 40 µM (active) | EC50 [14]: > 99 µM (inactive)

CCN(CC)CCCNC(=O)c1cc2c(Cl)nc3ccccc3c2s1
AC50 [1]: 16.8 µM (active) | AC50 [15]: 1.58 µM (active)

CS(=O)(=O)c1cnc2c(-c3ccsc3)cnn2c1N
EC50 [11]: > 50 µM (active)

CC(=O)Nc1ccc2nc(C)cc(O)c2c1
IC50 (Estrogen receptor): 21 µM (active)

CCC(C)(C)NC(=O)COc1ccc(C(=O)c2ccccc2)cc1
EC50 [11]: > 50 µM (active)
